The subject of data set [1] is post-confluent NHEK cells. Put plainly: Growth of re-cultured post-confluent (cell-cell contact growth arrested) NHEK's. It counts as cell-based, human. The following applies: for continued growth of post-confluent NHEK's (phase contrast): passage 4, 24 hours with compound, 10 μM Y27632, 500-1250 nM Tadalafil, 50-200 nM Fenbendazole; for concentration causing optimal cell growth: post-confluent NHEK. The source says: Neonatal human epidermal foreskin keratinocytes (NHEKs) were used to test the ability of compounds to reverse, arrest or slow down cellular ageing. These cells typically undergo approximately 35 cell divisions before the Hayflick limit is reached but they can be induced to undergo premature senescence and, what has been understood to be, irreversible growth arrest earlier than this by induction of cell-cell contact growth inhibition when cultured at high cell density/to confluence (Poumay & Pittelkow 1995 J Inv Dermatol 104, p 271-276). The inventors were thus inspired to culture post-confluent cells and assess the effect of test compounds on the growth, telomere loss and secretion of inflammatory factors by such cells. An experimental schematic is provided as FIG. 1. 1.1 Culture of Early Passage NHEK's in the Presence and Absence of y27632 Pooled donor neonatal NHEK's (Cat No C-12005, Lot No 456Z001.1, PromoCell GmBH), serum-free PromoCell Keratinocyte Growth Medium 2 (KSFM, Cat No C20011. Lot No 472M197), CaCl2) (Lot No 471055) and Supplements (Lot No 472M013) were all obtained from PromoCell GmBH. NHEK's were thawed directly into a single T75 in 20 mls of complete KSFM (CaCl2 & Supplements), incubated over night at 37° C., 5% CO2 and the medium changed the following day. After 3 days the cells were 80% confluent and were passaged (Ist) using 0.05% Trypsin+EDTA (Gibco) into ×2 T75 flasks at a split ratio of 1:4. After overnight incubation at 37° C., 5% CO2, the cultures were at 30% confluence and 10 μM Y27632 (Cat No 688000, Lot No 2884132, Merck) was added to one of the flasks. […] Fresh T75 flasks were seeded with 5.0×10^5 cells from each in their respective medium. […] Fresh T75 flasks were seeded, as described previously, and also 1.2×10^4 NHEK cells/well were seeded into 24 well plates, incubated overnight to allow cell attachment, and the following subsequently added to separate wells: • A. NHEK in complete KSFM • B. NHEK+Y27632 in complete KSFM • C. Y27632 treated NHEK transferred to complete KSFM (Y27632 Removed) • D. NHEK transferred to complete KSFM+500 nM Tadalafil • E. NHEK transferred to complete KSFM+750 nM Tadalafil • F. NHEK transferred to complete KSFM+1000 nM Tadalafil • G. NHEK transferred to complete KSFM+1250 nM Tadalafil • H. NHEK transferred to complete KSFM+50 nM Fenbendazole • I. NHEK transferred to complete KSFM+100 nM Fenbendazole • J. NHEK transferred to complete KSFM+150 nM Fenbendazole • K. NHEK transferred to complete KSFM+200 nM Fenbendazole All drugs were added 24 hours after seeding. […] FIG. 2B is an example of the appearance of post-confluent cells.
Post-confluent NHEK's (FIG. 2B) were subsequently passaged (4th) into a fresh 24 well plate using a split ratio of 1 in 4 in 2 mls of fresh complete KSFM. These were left overnight to attach and the same compounds added (as shown in A-K of 1.1) followed by incubation for a further 24 hours and subsequently photographed.

The next data set deals with Interleukin 6 (IL-6). Put plainly: IL-6 secretion by NHEK's (Human IL-6 SimpleStep ELISA). It counts as cell-based. The following applies: post-confluent NHEKs, 4 days post-confluence, FIG. 9b; Tadalafil at 500 nM.
Data set [2] concerns post-confluent NHEK cells. Put plainly: Growth of re-cultured post-confluent (cell-cell contact growth arrested) NHEK's. The class given is cell-based, human.
Data set [3] has as its system neonatal human epidermal foreskin keratinocytes (NHEKs). In words: Culture of early passage NHEK's in the presence and absence of Y27632 (live cell counts). It counts as cell-based. The source says:
Neonatal human epidermal foreskin keratinocytes (NHEKs) were used to test the ability of compounds to reverse, arrest or slow down cellular ageing. These cells typically undergo approximately 35 cell divisions before the Hayflick limit is reached but they can be induced to undergo premature senescence and, what has been understood to be, irreversible growth arrest earlier than this by induction of cell-cell contact growth inhibition when cultured at high cell density/to confluence (Poumay & Pittelkow 1995 J Inv Dermatol 104, p 271-276). The inventors were thus inspired to culture post-confluent cells and assess the effect of test compounds on the growth, telomere loss and secretion of inflammatory factors by such cells. […] Lot No 472M197), CaCl2) (Lot No 471055) and Supplements (Lot No 472M013) were all obtained from PromoCell GmBH. NHEK's were thawed directly into a single T75 in 20 mls of complete KSFM (CaCl2 & Supplements), incubated over night at 37° C., 5% CO2 and the medium changed the following day. […] After a further 48 hours both flasks were 60% confluent and phase contrast images were recorded (Zeiss […]). […] The inventors assessed that these cells had stopped growing due to cell-cell contact inhibition and had become post-confluent as defined herein. […]

For a further data set, the system named is 14th passage NHEK cells. In words: Toxic effects on late-passage (passage 14) NHEK's. It counts as cell-based, human. Conditions: 6 days, 10 μM Y27632 or 500 nM Tadalafil+100 nM Fenbendazole. The source says:
NHEK's were maintained in complete KSFM for 55 days with serial passage routinely carried out at 80% confluence in T75 flasks, as previously described in 1.1. These cells were not grown to be post-confluent and the cells were therefore not used to assess the ability of test compounds to reverse, arrest or slow down cellular ageing. Instead, the cells were used to assess whether or not Y27632, fenbendazole or tadalafil has any toxic effects. After the 55 days, a total of 50,000 cells/well of 14th passage NHEK cells were seeded into 6 well plates and, after 24 hours, Y27632, and a mixture of Tadalafil and Fenbendazole were added.

Experimental for Interleukin 6 (IL-6): Aliquots of 60,000 NHEK cells were seeded into separate T25 flasks in complete KSFM and incubated at 5% CO2, 37° C. for 3 days until they reached 20% confluence. Fenbendazole and Tadalafil were then added to each of these as either single agents, or in combination, and the cells incubated for a further 3 days at 5% CO2, 37° C. until the cells reached >50% confluence. A sample of medium was then taken for analysis of IL-6 levels using a Human IL-6 SimpleStep ELISA Kit (AbCam Cat No ab178013) according to the manufacturer's instructions (FIG. 9a). Both medium and drugs were replaced, the cells incubated for a further 3 days until confluent, medium and drugs were changed and the incubation continued for 4 days post-confluence when final medium samples were taken for analysis of IL6 levels (FIG. 9b). Each data point was repeated in triplicate and OD 490 nm readings were determined with a Dynex MRX Plate reader.

Regarding `CN1CC(=O)N2[C@H](c3ccc4c(c3)OCO4)c3[nH]c4ccccc4c3C[C@@H]2C1=O` [Tadalafil, pyrazino[1′,2′: 1,6]pyrido[3,4-b]indole-1,4-dione, 6-(1,3-benzodioxol-5-yl)-2,3,6,7,12,12a-hexahydro-2-methyl-, (6R,12aR)], the “continued growth of post-confluent NHEK's (phase contrast)” value in data set [1] (FIG. 3) is on record as “all exhibited cell growth”. The “concentration causing optimal cell growth” value in data set [1] (cultured for a further 24 hrs, FIG. 4) was “about 1000 nM”; in data set [1] (passage 4, 24 hours, FIG. 3), 750 to 1000 nM. The “secretion of IL-6 compared to DMSO control” value with Interleukin 6 (IL-6) is listed as “least effective”. Further, in data set [2] (treatment P3-P5 only, withdrawn following passage 6, 5 days, FIG. 5), the “number of viable cells (Via-1 Assay) following withdrawal of drug” value is reported as 1.3×10^4 cells/ml. Also, in data set [2] (treatment continued for passages P3-P6, 5 days after passage 6, FIG. 5), the “number of viable cells (Via-1 Assay)” value is recorded as 4.3×10^4 cells/ml.
As for `C[C@@H](N)[C@H]1CC[C@H](C(=O)Nc2ccncc2)CC1` [Y27632], the “total live cell counts” value in data set [3] (KSFM+10 μM Y27632, 2nd passage at 80% confluence) is 5.2×10^5 cells/ml. In data set [3] (KSFM+10 μM Y27632, 3rd passage, 72 hours after seeding 5.0×10^5 cells), the cell counts is 5.3×10^5 cells/ml. In addition, in data set [1] (FIG. 3), the “continued growth of post-confluent NHEK's (phase contrast)” value was “no, or minimal cell rejuvenation”. In addition, the “proliferation and cell death of late passage cells” value in the data set on 14th passage NHEK cells is “no proliferation and extensive cell death”.

Source of the values: patent US20250352518A1, “A BENZIMIDAZOLE COMPOUND WITH ANTIHELMINTHIC ACTIVITY FOR USE IN REVERSING, ARRESTING OR SLOWING DOWN CELLULAR AGEING IN A VERTEBRATE SUBJECT” (RAVAN BIO LIMITED, priority 2022, published 2025).
